According to article PMC7037232, “Effect of Cholesterol on the Organic Cation Transporter OCTN1 (SLC22A4)” (International Journal of Molecular Sciences, 2020):
Where “and” joins values, the source holds several entries; their conditions need not be identical. Equal entries are not always repeated. One block for each molecule: values may come before it.

Key:
recombinant OCTN1 [1] = biological target: T1, recombinant OCTN1 (Homo sapiens, UniProt Q9H015); assay: [14C]-TEA uptake in proteoliposomes reconstituted with recombinant OCTN1 over-expressed in E. coli; assay type: biochemical; conditions: for IC50: [14C]-TEA uptake 0.1 mM, 20 min
T1 construct: made in house; host or cells: E. coli
T1 sequence (Q9H015 1-551): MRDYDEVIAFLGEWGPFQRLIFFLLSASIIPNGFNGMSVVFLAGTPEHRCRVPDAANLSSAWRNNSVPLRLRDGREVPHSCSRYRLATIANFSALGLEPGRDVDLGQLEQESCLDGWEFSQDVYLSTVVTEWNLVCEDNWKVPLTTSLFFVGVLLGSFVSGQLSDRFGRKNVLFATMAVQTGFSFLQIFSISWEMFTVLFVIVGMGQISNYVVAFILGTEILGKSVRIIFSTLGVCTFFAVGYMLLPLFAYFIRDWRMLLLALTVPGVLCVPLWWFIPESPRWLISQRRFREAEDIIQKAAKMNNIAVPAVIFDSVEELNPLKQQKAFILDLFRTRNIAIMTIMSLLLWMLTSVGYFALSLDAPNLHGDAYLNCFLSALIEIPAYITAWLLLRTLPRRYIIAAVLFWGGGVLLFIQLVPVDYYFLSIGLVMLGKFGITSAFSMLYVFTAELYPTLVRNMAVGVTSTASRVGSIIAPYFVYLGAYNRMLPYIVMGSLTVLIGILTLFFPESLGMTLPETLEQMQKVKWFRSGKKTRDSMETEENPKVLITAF
Protocol: (§1) OCTN1 over-expressed in E. coli and purified as previously described was used for reconstitution in liposomes. The composition of the initial mixture used for reconstitution (except when differently indicated) was 200 µL of the purified protein (5 µg protein in 0.05% DDM), CHS at the indicated concentrations solubilized in 240 µL of 20 mM Tris/HCl (pH 7.5) and 5% Triton X-100 or buffer and Triton X-100 alone in the case of samples without CHS, 120 µL of 10% egg yolk phospholipids in the form of sonicated liposomes prepared as previously described, 16 mM ATP and (where indicated) in a final volume of 700 μL. The purified OCTN1 inserted in liposomal membrane by removing the detergent from mixed micelles containing detergent, protein, and phospholipids with Amberlite XAD-4 in a batch-wise procedure. Where indicated, proteoliposome internal volume was measured using a colorimetric phosphate method. In detail, 30 mM dipotassium phosphate (K2HPO4) was added to the reconstitution mixture. After elution from Sephadex G75 pre-equilibrated with 5 mM Tris/HCl (pH 7.5), 100 µL of sample were used for the colorimetric reaction. A solution containing 150 µL of 10% SDS was used to solubilize liposomal membranes. Then, 700 µL of a solution prepared with 10 mM hexammonium heptamolybdate 4-hydrate, 0.3 mM H2SO4 and 0.1 mM FeSO4 was added starting an incubation of 30 min in the dark. At the end, absorbance from each sample was measured at 578 nm. Internal volume in µL was derived from nmol of phosphate incorporated in liposomes.
(§2) Proteoliposomes reconstituted with the recombinant OCTN1 and added or not with CHS were incubated with MβCD as above described and then, MβCD was removed by chromatography on Sephadex G-75 column as described in Section 4.7.
(§3) Proteoliposomes (550 µL) were passed through a Sephadex G-75 column (0.7 cm diameter x 15 cm height) pre-equilibrated with 5 mM Tris/HCl (pH 7.5). The first 550 µL turbid eluate was collected and divided in aliquots (samples) of 100 µL each. Transport was started by adding 0.1 mM [^14C]-TEA or [^3H]-acetylcholine to the proteoliposome samples and stopped by adding 0.5 mM HgCl2 at the desired time interval. In control samples, the inhibitor was added at time zero according to the inhibitor stop method. Finally, each sample of proteoliposomes (100 µL) was passed through a Sephadex G-75 column (0.6 cm diameter × 8 cm height) in order to separate the external from the internal radioactivity. Liposomes were eluted with 1 mL of 50 mM NaCl and collected in 4ml of scintillation mixture, vortexed, and counted. The experimental values were corrected by subtracting the respective controls. The uptake time course data were interpolated using a first order rate equation from which rate constants were derived as the product of k (the first order rate constant) and the transport at the equilibrium. Data from dose-response experiments were fitted into an IC50 equation. For kinetic experiments the initial rate of transport expressed as nmol ⋅ min^−1 ⋅ mg protein^−1, was measured by stopping the reaction after 10 min, i.e., within the initial linear range of [^14C]-TEA or [^3H]-acetylcholine uptake into the proteoliposomes. Kinetic constants were estimated from interpolation of the experimental data into a Lineweaver–Burk equation. The Grafit (version 5.0.3) software was used for calculations.

recombinant OCTN1 [2] = biological target: T1, recombinant OCTN1; assay: [3H]-acetylcholine uptake in proteoliposomes reconstituted with recombinant OCTN1 over-expressed in E. coli; assay type: biochemical; conditions: for IC50: [3H]-acetylcholine uptake 0.1 mM, 20 min
Protocol: as §1, §3

recombinant OCTN1 [3] = biological target: T1, recombinant OCTN1; assay: Immunodetection of OCTN1 incorporated in proteoliposomes (anti-His antibody)
native human OCTN1 = biological target: T2, native human OCTN1 (Homo sapiens, UniProt Q9H015); assay: [14C]-TEA uptake in proteoliposomes reconstituted with native OCTN1 extracted from HeLa cells; assay type: biochemical; conditions: 0.1 mM [14C]-TEA
T2 construct: the native human OCTN1, the protein extracted from HeLa cells was exploited; endogenous in cells; host or cells: HeLa cells (Triton X-100 extract reconstituted in proteoliposomes)
T2 sequence (Q9H015 1-551): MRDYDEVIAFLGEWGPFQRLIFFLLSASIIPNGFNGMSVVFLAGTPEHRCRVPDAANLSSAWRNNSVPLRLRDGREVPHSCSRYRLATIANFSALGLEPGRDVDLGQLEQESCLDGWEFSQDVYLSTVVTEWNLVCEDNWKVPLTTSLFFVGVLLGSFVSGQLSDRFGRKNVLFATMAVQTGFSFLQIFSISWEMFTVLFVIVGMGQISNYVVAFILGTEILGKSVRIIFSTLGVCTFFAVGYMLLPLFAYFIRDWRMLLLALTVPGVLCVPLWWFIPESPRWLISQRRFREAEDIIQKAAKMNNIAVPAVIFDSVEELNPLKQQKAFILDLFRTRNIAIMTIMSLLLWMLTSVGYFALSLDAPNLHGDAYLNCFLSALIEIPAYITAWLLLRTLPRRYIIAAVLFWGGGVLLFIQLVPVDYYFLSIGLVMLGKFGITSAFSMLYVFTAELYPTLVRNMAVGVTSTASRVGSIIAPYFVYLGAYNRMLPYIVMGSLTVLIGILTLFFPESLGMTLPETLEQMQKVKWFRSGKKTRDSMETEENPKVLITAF
Protocol: HeLa cells pellet was treated with 150 µL TX-100 10%. After vortexing cells have been incubated 30 min on ice and then centrifuged 10 min 12.000× g at 4 °C. The cell membrane extract (supernatant) was used for the reconstitution. 30 µL supernatant were included to the reconstitution mixture containing 120 µL 10% egg yolk phospholipids in the form of sonicated liposomes prepared as previously described, 80 µL 10% Triton X-100 solution, 16 mM ATP, 7 µL of 500 mM Tris/HCl (pH 7.5) in a final volume of 700 μL.
Each HeLa cell sample or HeLa cell extract was incubated with 10 mM MβCD for 90 min at 37 °C under stirring. Then, the respective extracts were reconstituted in proteoliposomes.
Proteoliposomes (550 µL) were passed through a Sephadex G-75 column (0.7 cm diameter x 15 cm height) pre-equilibrated with 5 mM Tris/HCl (pH 7.5). […] Finally, each sample of proteoliposomes (100 µL) was passed through a Sephadex G-75 column (0.6 cm diameter × 8 cm height) in order to separate the external from the internal radioactivity. Liposomes were eluted with 1 mL of 50 mM NaCl and collected in 4ml of scintillation mixture, vortexed, and counted. […] For kinetic experiments the initial rate of transport expressed as nmol ⋅ min^−1 ⋅ mg protein^−1, was measured by stopping the reaction after 10 min, i.e., within the initial linear range of [^14C]-TEA or [^3H]-acetylcholine uptake into the proteoliposomes. […]

[4] = Enzymatic quantitation of cholesterol/CHS in proteoliposome lipids; conditions: proteoliposomes with initial 8.3% CHS, 10 mM MβCD
Protocol: as §2
Quantitation was performed using the Cholesterol Quantitation Kit MAK043 by Merck Life Science s.r.l., 20149 Milan, Italy,). Assay was performed in the presence of cholesterol esterase with absorbance measured on a microplate reader at 570 nm.

[5] = substrate: CC(=O)OCC[N+](C)(C)C; assay: [3H]-acetylcholine uptake in proteoliposomes reconstituted with recombinant OCTN1 over-expressed in E. coli; assay type: biochemical, human; conditions: other: in the absence of CHS; pH 7.5
Protocol: OCTN1 over-expressed in E. coli and purified as previously described was used for reconstitution in liposomes. The composition of the initial mixture used for reconstitution (except when differently indicated) was 200 µL of the purified protein (5 µg protein in 0.05% DDM), CHS at the indicated concentrations solubilized in 240 µL of 20 mM Tris/HCl (pH 7.5) and 5% Triton X-100 or buffer and Triton X-100 alone in the case of samples without CHS, 120 µL of 10% egg yolk phospholipids in the form of sonicated liposomes prepared as previously described, 16 mM ATP and (where indicated) in a final volume of 700 μL. […] Where indicated, proteoliposome internal volume was measured using a colorimetric phosphate method. […] At the end, absorbance from each sample was measured at 578 nm. […]
Proteoliposomes (550 µL) were passed through a Sephadex G-75 column (0.7 cm diameter x 15 cm height) pre-equilibrated with 5 mM Tris/HCl (pH 7.5). […] Finally, each sample of proteoliposomes (100 µL) was passed through a Sephadex G-75 column (0.6 cm diameter × 8 cm height) in order to separate the external from the internal radioactivity. Liposomes were eluted with 1 mL of 50 mM NaCl and collected in 4ml of scintillation mixture, vortexed, and counted. […]

- effect of intraliposomal ATP on transport (recombinant OCTN1 [1]; TEA uptake, 8.3% CHS): stimulated the transport
- effect of intraliposomal ATP on transport (recombinant OCTN1 [2]; acetylcholine uptake, 8.3% CHS): stimulated the transport
Molecule: Nc1ncnc2c1ncn2[C@@H]1O[C@H](COP(=O)(O)OP(=O)(O)OP(=O)(O)O)[C@@H](O)[C@H]1O [ATP]

Molecule: CC(C)CCC[C@@H](C)[C@H]1CC[C@H]2[C@@H]3CC=C4C[C@@H](OC(=O)CCC(=O)O)CC[C@]4(C)[C@H]3CC[C@]12C [CHS, Cholesteryl HemiSuccinate]
- transport of TEA relative to control (without added cholesterol) (recombinant OCTN1 [1]; 8.3% CHS (83 µg CHS/mg total lipids), 0.1 mM [14C]-TEA): about double the control
- CHS amount giving optimal transport activity (recombinant OCTN1 [1]; [14C]-tetraethylamonium uptake): 83 µg CHS/ mg total lipids
- transport of acetylcholine relative to control (without added cholesterol) (recombinant OCTN1 [2]; 8.3% CHS (83 µg CHS/mg total lipids), 0.1 mM [3H]-acetylcholine): about double the control
- CHS amount giving optimal transport activity (recombinant OCTN1 [2]; [3H]-acetylcholine uptake): 83 µg CHS/ mg total lipids
- relative concentration of immuno-stained OCTN1, normalized to 0% CHS (100%) (recombinant OCTN1 [3]; 2.1% CHS): 109 ± 14%
- relative concentration of immuno-stained OCTN1, normalized to 0% CHS (100%) (recombinant OCTN1 [3]; 4.2% CHS): 104 ± 5.8%
- relative concentration of immuno-stained OCTN1, normalized to 0% CHS (100%) (recombinant OCTN1 [3]; 8.3% CHS): 106 ± 9.1%

Molecule: [Cl][Hg][Cl] [HgCl2]
- IC50 (recombinant OCTN1 [1]; in the absence of CHS): 270 ± 50 µM
- IC50 (recombinant OCTN1 [1]; in the presence of 8.3% CHS): 200 ± 30 µM

- IC50 (recombinant OCTN1 [1]; in the presence of 8.3% CHS): 1700 ± 500 µM
- IC50 (recombinant OCTN1 [2]; in the presence of 8.3% CHS): 2200 ± 200 µM
Molecule: [Na+] [Na^+]

Molecule: CC[N+](CC)(CC)CC [TEA, Tetraethylammonium]
- Km (recombinant OCTN1 [1]): 900 µM and 800 µM
- Vmax of transport (recombinant OCTN1 [1]): 36.1 ± 8.6 nmol ⋅ min^−1 ⋅ mg protein^−1 and 66.6 ± 16.4 nmol ⋅ min^−1 ⋅ mg protein^−1

- IC50 (recombinant OCTN1 [1]; in the absence of CHS): 1600 ± 300 µM
- IC50 (recombinant OCTN1 [1]; in the presence of 8.3% CHS): 1900 ± 700 µM
Molecule: CC[N+](CC)(CC)Cc1ccccc1 [TEBA, Benzyltriethylammonium]

Molecule: C[N+]1(C)CCOC(O)(c2ccc(-c3ccc(C4(O)C[N+](C)(C)CCO4)cc3)cc2)C1 (stereo not shown) [hemicholinium]
- IC50 (recombinant OCTN1 [2]; in the absence of CHS): 530 ± 46 µM
- IC50 (recombinant OCTN1 [2]; in the presence of 8.3% CHS): 300 ± 52 µM

- decrease of the native OCTN1 activity with respect to the control (native human OCTN1; HeLa cell extract incubated with 10 mM MβCD prior to reconstitution): 35%
- decrease of the native OCTN1 activity with respect to the control (native human OCTN1; HeLa cells incubated with 10 mM MβCD prior to solubilization): 23%
- decrease in transport activity (recombinant OCTN1 [1]; proteoliposomes with 8.3% CHS incubated with 10 mM MβCD, 0.1 mM [14C]-TEA): 31%
Molecule: Methyl-beta-CycloDextrin [MβCD]
- reduction of the initial CHS concentration [4]: 40%

B1: human recombinant OCTN1 (Homo sapiens) (protein)
chain: MRDYDEVIAFLGEWGPFQRLIFFLLSASIIPNGFNGMSVVFLAGTPEHRCRVPDAANLSSAWRNNSVPLRLRDGREVPHSCSRYRLATIANFSALGLEPGRDVDLGQLEQESCLDGWEFSQDVYLSTVVTEWNLVCEDNWKVPLTTSLFFVGVLLGSFVSGQLSDRFGRKNVLFATMAVQTGFSFLQIFSISWEMFTVLFVIVGMGQISNYVVAFILGTEILGKSVRIIFSTLGVCTFFAVGYMLLPLFAYFIRDWRMLLLALTVPGVLCVPLWWFIPESPRWLISQRRFREAEDIIQKAAKMNNIAVPAVIFDSVEELNPLKQQKAFILDLFRTRNIAIMTIMSLLLWMLTSVGYFALSLDAPNLHGDAYLNCFLSALIEIPAYITAWLLLRTLPRRYIIAAVLFWGGGVLLFIQLVPVDYYFLSIGLVMLGKFGITSAFSMLYVFTAELYPTLVRNMAVGVTSTASRVGSIIAPYFVYLGAYNRMLPYIVMGSLTVLIGILTLFFPESLGMTLPETLEQMQKVKWFRSGKKTRDSMETEENPKVLITAF
notes: made in house; host or cells: E. coli
- Km [5]: 1100 ± 370 µM
- Vmax [5]: 49.3 ± 12.4 nmol ⋅ min^−1 ⋅ mg protein^−1
